# From ChEMBL document CHEMBL5055644, “Cysteine derivatives as acetyl lysine mimics to inhibit zinc-dependent histone deacetylases for treating cancer” (Eur J Med Chem, 2021)
# Active and inactive are the calls of the source. The rule behind the calls is not given here.
# Key:
# A549 [1] = experiment: Induction of apoptosis in human A549 cells at 1 to 10 uM after 48 hrs by Annexin-V/propidium iodide staining based flow cytometric analysis; assay type: functional, cell-based; conditions: dose 1-10 µM
# [2] = Acute toxicity in po dosed BALB/c mouse assessed as lethal dose; assay type: organism-based; conditions: in vivo
# A549 [3] = experiment: Antitumor activity against human A549 cells xenografted in BALB/c mouse assessed as tumor growth inhibition at low dose when administered intratumorally for 21 days relative to control; assay type: functional; conditions: route it(Intratumoral); time 21 day
# K562 [4] = experiment: Induction of apoptosis in human K562 cells assessed as downregulation of Bcl-2 protein at 10 uM measured after 8 hrs by Western blot analysis; assay type: functional, cell-based
# [5] = target: T1, Class 1 histone deacetylase (Homo sapiens) (UniProt Q13547+O15379+Q92769+Q9BY41); experiment: Inhibition of class 1 HDAC in human A549 cells assessed as increase in histone H3/H4 acetylation measured after 24 hrs by Immunofluorescent assay; assay type: cell-based
# T1 sequence (O15379 whole entry, looked up): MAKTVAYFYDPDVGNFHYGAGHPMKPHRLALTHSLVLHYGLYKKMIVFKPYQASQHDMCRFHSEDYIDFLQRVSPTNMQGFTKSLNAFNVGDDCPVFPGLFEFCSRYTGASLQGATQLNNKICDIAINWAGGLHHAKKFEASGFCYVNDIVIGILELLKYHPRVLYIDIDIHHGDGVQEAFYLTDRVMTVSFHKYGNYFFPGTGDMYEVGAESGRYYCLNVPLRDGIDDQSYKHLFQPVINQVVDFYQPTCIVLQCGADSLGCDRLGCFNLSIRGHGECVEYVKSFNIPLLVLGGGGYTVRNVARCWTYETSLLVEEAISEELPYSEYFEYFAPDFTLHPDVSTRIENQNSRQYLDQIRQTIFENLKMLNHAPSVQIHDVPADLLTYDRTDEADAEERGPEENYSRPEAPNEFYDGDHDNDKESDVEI
# T1 sequence (Q13547 whole entry, looked up): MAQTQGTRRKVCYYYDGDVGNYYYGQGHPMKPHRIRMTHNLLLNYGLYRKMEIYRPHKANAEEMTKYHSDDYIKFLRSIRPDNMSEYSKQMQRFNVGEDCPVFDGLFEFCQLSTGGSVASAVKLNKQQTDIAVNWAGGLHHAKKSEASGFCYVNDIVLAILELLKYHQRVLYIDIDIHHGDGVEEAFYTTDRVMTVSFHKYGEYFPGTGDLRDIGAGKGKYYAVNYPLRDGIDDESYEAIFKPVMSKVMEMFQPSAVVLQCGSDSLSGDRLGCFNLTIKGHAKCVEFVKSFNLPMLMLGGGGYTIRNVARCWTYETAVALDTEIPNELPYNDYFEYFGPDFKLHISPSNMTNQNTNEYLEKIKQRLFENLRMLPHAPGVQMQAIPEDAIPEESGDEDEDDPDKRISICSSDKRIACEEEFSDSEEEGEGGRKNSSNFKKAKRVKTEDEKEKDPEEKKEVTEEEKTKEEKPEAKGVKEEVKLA
# T1 sequence (Q92769 whole entry, looked up): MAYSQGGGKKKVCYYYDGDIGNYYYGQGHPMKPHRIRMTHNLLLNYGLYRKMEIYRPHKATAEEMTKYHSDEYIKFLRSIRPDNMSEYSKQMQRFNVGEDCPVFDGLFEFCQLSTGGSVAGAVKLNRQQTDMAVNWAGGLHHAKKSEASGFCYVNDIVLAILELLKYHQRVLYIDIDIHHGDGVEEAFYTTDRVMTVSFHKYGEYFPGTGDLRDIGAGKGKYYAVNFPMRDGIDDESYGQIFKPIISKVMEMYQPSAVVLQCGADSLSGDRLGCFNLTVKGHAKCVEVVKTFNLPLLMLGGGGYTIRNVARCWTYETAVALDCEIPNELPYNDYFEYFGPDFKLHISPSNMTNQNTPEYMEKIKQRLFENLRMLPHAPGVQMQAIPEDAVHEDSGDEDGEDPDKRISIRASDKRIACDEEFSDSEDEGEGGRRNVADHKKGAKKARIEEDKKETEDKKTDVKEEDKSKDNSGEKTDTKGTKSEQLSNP
# T1 sequence (Q9BY41 whole entry, looked up): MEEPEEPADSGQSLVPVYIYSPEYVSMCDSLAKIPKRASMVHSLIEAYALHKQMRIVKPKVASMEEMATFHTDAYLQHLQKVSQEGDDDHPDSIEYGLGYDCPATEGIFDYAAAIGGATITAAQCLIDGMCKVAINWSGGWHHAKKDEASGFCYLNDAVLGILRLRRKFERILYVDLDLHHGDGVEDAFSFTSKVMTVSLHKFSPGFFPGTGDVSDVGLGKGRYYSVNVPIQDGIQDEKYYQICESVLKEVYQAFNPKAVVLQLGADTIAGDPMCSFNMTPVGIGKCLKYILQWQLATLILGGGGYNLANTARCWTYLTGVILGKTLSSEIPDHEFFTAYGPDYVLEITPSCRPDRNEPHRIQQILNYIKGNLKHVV
# A549 [6] = experiment: Induction of cell cycle arrest in human A549 cells assessed as increase in accumulation at G1/G0 phase measured after 48 hrs by flow cytometry analysis; assay type: functional, cell-based; conditions: dose 1-10 µM
# Mus musculus [7] = experiment: Toxicity in BALB/c mouse xenografted with human A549 cells assessed as effect on body weight at 25 to 50 mg/kg, iv measured after 21 days; assay type: organism-based; conditions: in vivo, 504 h, dose 25-50 mg/kg, time 21 day
# [8] = target: T2, Protein deacetylase HDAC6 (Homo sapiens) (UniProt Q9UBN7); experiment: Inhibition of HDAC6 in human A549 cells assessed as increase in alpha tubulin acetylation at 10 uM measured after 8 hrs by Western blot analysis; assay type: cell-based
# T2 sequence (whole entry): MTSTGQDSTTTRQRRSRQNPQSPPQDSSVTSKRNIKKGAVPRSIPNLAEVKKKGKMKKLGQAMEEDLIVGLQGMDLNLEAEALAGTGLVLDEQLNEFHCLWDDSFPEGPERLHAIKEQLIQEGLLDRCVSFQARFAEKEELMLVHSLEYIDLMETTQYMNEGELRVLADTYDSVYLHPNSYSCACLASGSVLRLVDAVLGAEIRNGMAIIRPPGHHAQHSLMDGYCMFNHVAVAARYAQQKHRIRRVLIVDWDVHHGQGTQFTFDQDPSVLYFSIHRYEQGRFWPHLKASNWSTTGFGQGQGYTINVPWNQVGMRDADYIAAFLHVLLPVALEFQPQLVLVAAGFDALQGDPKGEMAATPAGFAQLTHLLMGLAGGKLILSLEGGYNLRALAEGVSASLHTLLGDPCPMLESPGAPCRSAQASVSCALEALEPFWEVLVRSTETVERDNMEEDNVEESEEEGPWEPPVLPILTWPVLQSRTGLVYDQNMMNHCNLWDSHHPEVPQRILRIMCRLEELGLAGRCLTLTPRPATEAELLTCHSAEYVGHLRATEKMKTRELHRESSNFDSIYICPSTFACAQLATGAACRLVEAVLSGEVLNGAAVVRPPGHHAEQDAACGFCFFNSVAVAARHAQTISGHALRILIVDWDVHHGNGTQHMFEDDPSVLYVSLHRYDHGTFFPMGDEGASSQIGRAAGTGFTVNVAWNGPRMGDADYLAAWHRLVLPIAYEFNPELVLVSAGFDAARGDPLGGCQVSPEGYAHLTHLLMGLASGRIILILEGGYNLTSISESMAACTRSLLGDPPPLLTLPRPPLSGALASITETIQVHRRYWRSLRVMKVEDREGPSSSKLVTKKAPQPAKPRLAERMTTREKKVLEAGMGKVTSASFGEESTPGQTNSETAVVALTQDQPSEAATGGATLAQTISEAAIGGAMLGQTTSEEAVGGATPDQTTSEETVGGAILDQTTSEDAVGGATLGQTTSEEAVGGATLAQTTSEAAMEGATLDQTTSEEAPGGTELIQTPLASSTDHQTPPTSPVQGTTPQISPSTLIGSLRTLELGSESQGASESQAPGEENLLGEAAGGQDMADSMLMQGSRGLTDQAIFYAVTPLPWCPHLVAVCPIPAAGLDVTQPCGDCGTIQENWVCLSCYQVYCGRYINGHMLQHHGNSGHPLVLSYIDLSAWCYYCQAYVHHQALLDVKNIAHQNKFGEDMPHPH
# [9] = target: T2, Protein deacetylase HDAC6 (Homo sapiens); experiment: Inhibition of HDAC6 in human A549 cells assessed as increase in alpha tubulin acetylation measured after 24 hrs by Immunofluorescent assay; assay type: cell-based
# [10] = Acute toxicity in BALB/c mouse assessed as maximum tolerated dose; conditions: in vivo
# [11] = target: T1, Class 1 histone deacetylase (Homo sapiens); experiment: Inhibition of class 1 HDAC in human A549 cells assessed as increase in histone H3/H4 acetylation at 10 uM measured after 8 hrs by Western blot analysis; assay type: cell-based
# A549 [12] = experiment: Antitumor activity against human A549 cells xenografted in BALB/c mouse assessed as tumor growth inhibition at high dose when administered intratumorally for 21 days relative to control; assay type: functional; conditions: route it(Intratumoral); time 21 day
# K562 [13] = experiment: Induction of apoptosis in human K562 cells assessed as increased cleaved caspase 9 at 10 uM measured after 8 hrs by Western blot analysis; assay type: functional, cell-based
# [14] = Acute toxicity in BALB/c mouse assessed as effect on body weight at up to 2000 mg/kg, po; assay type: organism-based; conditions: in vivo
# K562 [15] = experiment: Induction of apoptosis in human K562 cells assessed as upregulation of BaX protein expression at 10 uM measured after 8 hrs by Western blot analysis; assay type: functional, cell-based
# A549 [16] = experiment: Antitumor activity against human A549 cells xenografted in BALB/c mouse assessed as reduction in tumor volume when administered intratumorally for 21 days; assay type: functional; conditions: dose 0.75-1.5 mg, route it(Intratumoral), time 21.0 day
# Mus musculus [17] = experiment: Toxicity in BALB/c mouse xenografted with human A549 cells assessed as effect on body weight at 0.75 to 1.5 mg, IT(Intratumoral) measured after 21 days; assay type: organism-based; conditions: in vivo, other, 504 h, dose 0.75-1.5 mg, time 21 day
# [18] = Acute toxicity in BALB/c mouse assessed as effect on normal behaviour at up to 2000 mg/kg, po; assay type: organism-based; conditions: in vivo
# Mus musculus [19] = experiment: In vivo inhibition of HDAC in BALB/c mouse xenografted with human A549 cells assessed as increase in H3 histone at 25 to 50 mg/kg, iv administered for 3 weeks by immunohistochemical analysis; assay type: functional, organism-based; conditions: dose 25-50 mg/kg
# [20] = target: Protein deacetylase HDAC6 (Mus musculus) (UniProt Q9Z2V5); experiment: In vivo inhibition of HDAC6 in BALB/c mouse xenografted with human A549 cells assessed as increase in alpha tubulin acetylation at 25 to 50 mg/kg, iv administered for 3 weeks by immunohistochemical analysis; assay type: functional, organism-based; conditions: dose 25-50 mg/kg
# Chain of Protein deacetylase HDAC6 (Mus musculus) (Q9Z2V5 whole entry): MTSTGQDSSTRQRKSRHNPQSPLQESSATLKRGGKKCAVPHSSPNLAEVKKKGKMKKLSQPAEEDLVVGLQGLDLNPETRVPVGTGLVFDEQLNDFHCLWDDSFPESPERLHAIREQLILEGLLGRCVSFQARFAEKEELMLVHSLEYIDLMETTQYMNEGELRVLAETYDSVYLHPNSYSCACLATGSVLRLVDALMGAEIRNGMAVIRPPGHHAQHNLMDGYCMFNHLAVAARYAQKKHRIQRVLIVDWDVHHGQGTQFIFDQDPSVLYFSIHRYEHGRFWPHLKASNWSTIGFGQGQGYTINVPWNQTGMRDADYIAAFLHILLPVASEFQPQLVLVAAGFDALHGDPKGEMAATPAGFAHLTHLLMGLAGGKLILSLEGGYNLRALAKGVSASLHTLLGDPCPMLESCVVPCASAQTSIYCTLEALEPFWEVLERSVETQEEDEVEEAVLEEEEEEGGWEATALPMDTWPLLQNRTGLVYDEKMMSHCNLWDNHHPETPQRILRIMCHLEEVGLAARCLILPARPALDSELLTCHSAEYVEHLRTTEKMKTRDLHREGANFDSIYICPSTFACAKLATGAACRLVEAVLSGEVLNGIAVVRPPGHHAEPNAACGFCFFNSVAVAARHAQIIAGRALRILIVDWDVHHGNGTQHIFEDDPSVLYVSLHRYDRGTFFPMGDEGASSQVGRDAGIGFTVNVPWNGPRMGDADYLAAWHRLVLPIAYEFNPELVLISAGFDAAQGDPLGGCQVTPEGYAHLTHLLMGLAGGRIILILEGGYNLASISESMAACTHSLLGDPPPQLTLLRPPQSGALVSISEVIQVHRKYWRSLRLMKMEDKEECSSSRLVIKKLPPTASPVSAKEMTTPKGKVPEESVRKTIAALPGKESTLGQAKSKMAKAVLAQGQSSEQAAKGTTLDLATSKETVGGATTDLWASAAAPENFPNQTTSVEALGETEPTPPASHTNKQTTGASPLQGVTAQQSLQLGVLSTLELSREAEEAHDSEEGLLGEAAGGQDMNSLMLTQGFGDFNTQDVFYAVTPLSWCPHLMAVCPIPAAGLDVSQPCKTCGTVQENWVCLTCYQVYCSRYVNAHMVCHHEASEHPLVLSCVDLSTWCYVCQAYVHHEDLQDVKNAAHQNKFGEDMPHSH
# A549 [21] = experiment: Antitumour activity against human A549 cells xenografted in BALB/c mouse assessed as tumor growth inhibition at 50 mg/kg,iv administered for 3 weeks relative to control; assay type: functional; conditions: A549, 504 h, read-out: TGI
# A549 [22] = experiment: Antitumour activity against human A549 cells xenografted in BALB/c mouse assessed as tumor growth inhibition at 25 mg/kg,iv administered for 3 weeks relative to control; assay type: functional; conditions: A549, 504 h, read-out: TGI
# K562 [23] = experiment: Induction of apoptosis in human K562 cells assessed as increased cleaved caspase 3 at 10 uM measured after 8 hrs by Western blot analysis; assay type: functional, cell-based
smiles,measurement,setting,value
O=C(CCCSC[C@H](NC(=O)c1ccccc1)C(=O)Nc1ccccc1)NO,Activity,A549 [1],Active
same,LD50,[2],> 2000 mg/kg
same,TGI,A549 [3],44%
same,Activity,K562 [4],Active
same,inhibition,[5],Dose-dependent effect
same,Activity,A549 [6],Dose-dependent effect
same,Activity,Mus musculus [7],Non-Toxic
same,inhibition,[8],Active
same,inhibition,[9],Dose-dependent effect
same,MTD,[10],100 mg/kg
same,inhibition,[11],Active
same,TGI,A549 [12],72%
same,Activity,K562 [13],Active
same,Activity,[14],Non-Toxic
same,Activity,K562 [15],Active
same,Activity,A549 [16],Dose-dependent effect
same,Activity,Mus musculus [17],Non-Toxic
same,Activity,[18],Non-Toxic
same,inhibition,Mus musculus [19],Active
same,inhibition,[20],Active
same,inhibition in vivo at 50 mg/kg,A549 [21],75%
same,inhibition in vivo at 25 mg/kg,A549 [22],62%
same,Activity,K562 [23],Active
